Laboratory results as given in article PMC4871484, “Functional Green-Tuned Proteorhodopsin from Modern Stromatolites” (PLoS ONE, 2016).

Target: T1, E17R (E17-PR), green proteorhodopsin (Exiguobacterium sp. S17, UniProt S3FWZ0)
T1 sequence (S3FWZ0 1-248): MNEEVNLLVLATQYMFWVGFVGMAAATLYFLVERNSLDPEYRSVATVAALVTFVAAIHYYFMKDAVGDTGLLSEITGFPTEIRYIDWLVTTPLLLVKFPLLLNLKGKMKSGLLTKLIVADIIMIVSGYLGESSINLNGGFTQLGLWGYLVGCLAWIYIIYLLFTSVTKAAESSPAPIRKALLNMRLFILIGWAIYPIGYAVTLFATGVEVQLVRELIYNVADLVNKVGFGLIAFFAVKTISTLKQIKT
Assay: UV-vis absorption of purified holoprotein; hydroxylamine bleaching to retinal oxime
Type: binding
Details: covalent; Schiff base with lysine; […] HEPES, […] NaCl, […] DDM; room temperature

With CC1=C(/C=C/C(C)=C/C=C/C(C)=C/C=O)C(C)(C)CCC1 [retinal] the “UV-vis absorption of purified holoprotein; hydroxylamine bleaching to retinal ox” value was “Expression and purification of E17R yielded after purification and retinal addition a protein with λmax”.
